Data as given in paper PMC4904242, “Comparative chemical genomics reveal that the spiroindolone antimalarial KAE609 (Cipargamin) is a P-type ATPase inhibitor” (Scientific Reports, 2016).

Target: T1, ScPma1p (Saccharomyces cerevisiae, UniProt P05030)
T1 construct: gene PMA1; ScPma1p-coated secretory vesicles from S. cerevisiae overexpressing ScPMA1
Assay: cell-free vesicle ATPase assay (Pi release)
Type: biochemical

T1 sequence (P05030 whole entry): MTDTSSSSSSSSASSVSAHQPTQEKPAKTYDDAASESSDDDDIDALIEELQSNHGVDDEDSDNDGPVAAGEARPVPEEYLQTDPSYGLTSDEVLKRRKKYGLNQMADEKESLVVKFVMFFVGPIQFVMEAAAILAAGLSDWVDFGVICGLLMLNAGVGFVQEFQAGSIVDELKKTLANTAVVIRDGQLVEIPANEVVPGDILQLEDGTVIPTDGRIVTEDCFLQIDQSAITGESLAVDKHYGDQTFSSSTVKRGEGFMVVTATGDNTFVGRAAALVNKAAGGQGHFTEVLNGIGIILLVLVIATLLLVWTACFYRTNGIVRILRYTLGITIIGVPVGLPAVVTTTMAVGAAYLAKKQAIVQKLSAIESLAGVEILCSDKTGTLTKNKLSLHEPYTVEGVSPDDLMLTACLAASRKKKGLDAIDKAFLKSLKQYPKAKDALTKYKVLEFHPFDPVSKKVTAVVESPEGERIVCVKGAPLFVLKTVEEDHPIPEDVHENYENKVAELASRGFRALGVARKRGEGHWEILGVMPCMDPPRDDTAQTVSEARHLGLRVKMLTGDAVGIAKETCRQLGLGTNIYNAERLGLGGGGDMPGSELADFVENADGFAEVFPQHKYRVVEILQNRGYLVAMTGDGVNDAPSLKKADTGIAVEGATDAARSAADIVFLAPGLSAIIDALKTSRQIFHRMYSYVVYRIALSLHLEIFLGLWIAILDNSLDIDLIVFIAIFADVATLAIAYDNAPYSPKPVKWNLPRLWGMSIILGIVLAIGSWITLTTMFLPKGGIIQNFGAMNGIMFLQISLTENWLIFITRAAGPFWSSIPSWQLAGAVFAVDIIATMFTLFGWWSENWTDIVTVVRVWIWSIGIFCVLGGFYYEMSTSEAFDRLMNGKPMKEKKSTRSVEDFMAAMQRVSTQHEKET

IC50: 0.0811 µM
Structure (SMILES): C[C@H]1Cc2c([nH]c3cc(Cl)c(F)cc23)[C@@]2(N1)C(=O)Nc1ccc(Cl)cc12 [6′F 7′Cl, KAE609]
